Consider nine molecules from patent publication US10294228B2, “Breathing control modulating compounds, and methods of making and using same” (NEURAD LTD., priority 2015, dated 2019).

Where a name gives a salt, the structure may show the parent alone.

Data set [1] in a line: Polymorphic transformation by exposure to humidity. The data set is classed as physicochemical. Particulars: >80% humidity, three days, ambient temperature; confirmed by XRPD and DSC. The protocol:
Approximately 10 mg of the solid as its initially obtained polymorphic form were placed in a 4 mL open vial. In a 20 mL vial, about 5 mL of distilled water were added and heated to about 50° C., then the vial was capped, and the contents were cooled for about 30 minutes at ambient temperature. Then the 20 mL vial was uncapped, the smaller vial was placed inside the bigger vial, the bigger vial was recapped, and the sample in the smaller vial was exposed and aged in an environment of approximately 80-95% relative humidity at ambient temperature for 3 days. Polymorphic transformation was confirmed by XRPD and DSC vs. that for the initially obtained polymorphic form.

For a further data set, the system named is anesthetized rats. The data set can be described thus: Anesthetized rat spirometry screening assay (ventilatory activity, minute volume). The data set is classed as in vivo. Conditions: increase in minute volume (VE); for change in vivo at 0.3 mg/kg: 0.3 mg/kg IV bolus, read-out: VE % Inc @ 0.3 mg/kg IV; for change in vivo at 3 mg/kg: 3.0 mg/kg IV bolus, read-out: VE % Inc @ 3.0 mg/kg IV. In a few lines: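 Urethane-anesthetized (1.5 g/kg i.v.) rats with tracheal cannula to pneumotachometer; minute volume derived from respiratory rate × tidal volume. Compounds given as i.v. bolus at 0.1 and/or 0.3 and/or 3 mg/kg, monitored at least 6 min; data as 30 s averages.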

Consider `CCCNc1nc(NC)nc2c(NCC(C)(C)O)nc(NC)nc12` [Compound 31d-1, 1-(2,6-Bis-methylamino-8-propylamino-pyrimido[5,4-d]pyrimidin-4-ylamino)-2-methyl-propan-2-ol], for which the “polymorphic transformation on exposure to humidity” value in data set [1] is given as “converted to form Mal-B (31d-2)”.
On the same count and under the same terms, in the case of `CCCNc1nc(NC)nc2c(NCC(C)(C)O)nc(NC)nc12` [Compound 31h-1, 1-(2,6-Bis-methylamino-8-propylamino-pyrimido[5,4-d]pyrimidin-4-ylamino)-2-methyl-propan-2-ol] it was “converted to form Tos-B (31h-2)”.
On to `CCCNc1nc(NC)nc2c(NCC3(O)CCC3)nc(NC)nc12` [Compound 72a, 1-[(2,6-Bis-methylamino-8-propylamino-pyrimido[5,4-d]pyrimidin-4-ylamino)-methyl]-cyclobutanol Hydrochloride], for which, in the data set on anesthetized rats, the change in vivo at 0.3 mg/kg turned out to be 132% and the change in vivo at 3 mg/kg amounted to 150%.
Taken in the same sequence, the figures for `CCCNc1nc(NC)nc2c(N[C@@H]3c4ccccc4C[C@@H]3O)nc(NC)nc12` [Compound 77, (1R,2S)-1-(2,6-Bis-methylamino-8-propylamino-pyrimido[5,4-d]-pyrimidin-4-ylamino)-indan-2-ol] were 135% and 170%.
Taken in the same sequence, the figures for `CCCNc1nc(NC)nc2c(N[C@@H]3CCCC[C@@H]3O)nc(NC)nc12` [Compound 84, (1S,2R)-2-(2,6-Bis-methylamino-8-propylamino-pyrimido[5,4-d]pyrimidin-4-ylamino)-cyclohexanol] were 169% and 184%.
Taken in the same sequence, the figures for `CCCNc1nc(NCC)c2nc(NCCO)nc(NCC)c2n1` [Compound 162, 2-(4,8-Bis-ethylamino-6-propylamino-pyrimido[5,4-d]pyrimidin-2-ylamino)-ethanol] were 187% and 216%.
For `CNc1nc(NC[C@H](C)O)nc2c(NC)nc(N)nc12` [Compound 152, (S)-1-(6-Amino-4,8-bis-methylamino-pyrimido[5,4-d]-pyrimidin-2-ylamino)-propan-2-ol], in the data set on anesthetized rats, the change in vivo at 0.3 mg/kg came to 7% and the change in vivo at 3 mg/kg turned out to be 89%.
For `CNc1nc(NCC(C)(C)O)c2nc(NC)nc(NCc3ccccc3)c2n1` [Compound 44a, 1-(8-Benzylamino-2,6-bis-methylamino-pyrimido[5,4-d]pyrimidin-4-ylamino)-2-methyl-propan-2-ol Hydrochloride], in the data set on anesthetized rats, the change in vivo at 0.3 mg/kg stood at 122% and the change in vivo at 3 mg/kg stood at 132%.
Taken in the same sequence, the figures for `CCCNc1nc(NC)nc2c(N[C@@H]3CCCC[C@H]3O)nc(NC)nc12` [Compound 85, (1R,2R)-2-(2,6-Bis-methylamino-8-propylamino-pyrimido[5,4-d]pyrimidin-4-ylamino)-cyclohexanol] were 69% and 83%.
